# Where a name gives a salt, the structure may show the parent alone. Read-outs that look alike come from different tables or passages of the source.
# Key:
# IL-23 (p19/p40) = assay: IL23-p19 ELISA, dendritic cells (DC differentiated from human PBMC, IFNγ primed), LPS stimulated; assay type: cell-based; settings: Dendritic cell, human PBMC-derived dendritic cells, 1 h compound pre-incubation, LPS 1 μg/ml 18 hours, 10 pt
# Procedure, shortened: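 PBMC-derived DCs (GM-CSF 100 ng/ml + IL-4 20 ng/ml, 7 days) primed 24 h with IFNγ 50 ng/ml, 50K cells/well; compound pre-incubated 1 h at 37° C, then LPS, 18 h. Supernatant IL-23 by p19-capture/p40-detection chemiluminescent ELISA; cytotoxicity by Cell Titer Glo.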
# IL-23p19 = assay: LPS Induced IL23p19 in THP-1 Cells (with IFNγ Primed) Assay; assay type: cell-based, human; settings: Homo sapiens, IFNγ (50 ng/mL) primed, 1 hour compound pre-incubation, LPS 1 ug/mL 18 hours, 10 pt, read-out: IL23-p19 ELISA, THP1-IFNy, LPS, 10 pt EC50
# Procedure, shortened: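 THP-1 cells (50K/well) primed ~18 h with IFNγ (50 ng/mL) in RPMI/10% FBS, then incubated with compound in duplicate for 18 h at 37° C. Supernatant IL-23p19 measured by chemiluminescent sandwich ELISA, giving EC50 by curve fitting. Toxicity assessed in parallel on the remaining cells by Cell Titer Glo.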
Compound,EC50 (IL-23 (p19/p40)) [µM],"EC50 (IL-23p19; THP-1, THP-1 cells) [µM]",EC50 (IL-23 (p19/p40); Homo sapiens) [µM],EC50 (IL-23p19; THP-1 cells) [µM]
"Cc1cncc(-c2cccc(C(=O)Nc3cn(C)nc3-c3ccc(OC4COC4)cn3)n2)c1 [Compound I-181, 5′-methyl-N-(1-methyl-3-(5-(oxetan-3-yloxy)pyridin-2-yl)-1H-pyrazol-4-yl)-[2,3′-bipyridine]-6-carboxamide]",4.17,1.49,–,–
"COCCOCCn1cc(NC(=O)c2cccc(Oc3ccnc(N)c3)n2)c(-c2ccccn2)n1 [Compound I-156, 6-((2-aminopyridin-4-yl)oxy)-N-(1-(2-(2-methoxyethoxy)ethyl)-3-(pyridin-2-yl)-1H-pyrazol-4-yl)picolinamide formate]",2.73,21.4,–,–
"COCCOCCn1cc(NC(=O)c2cccc(-c3ccco3)n2)c(-c2ccccn2)n1 [Compound I-152, 6-(furan-2-yl)-N-(1-(2-(2-methoxyethoxy)ethyl)-3-(pyridin-2-yl)-1H-pyrazol-4-yl)picolinamide 2,2,2-trifluoroacetate]",14.2,12.4,–,–
"Cn1cc(NC(=O)c2cccc(-c3cn[nH]c3)n2)c(N2CCOCC2)n1 [Compound I-74, N-(1-methyl-3-morpholino-1H-pyrazol-4-yl)-6-(1H-pyrazol-4-yl)picolinamide]",3.81,18.8,–,–
"COCCOCCn1cc(NC(=O)c2cccc(-c3cc4ccc(OC)cc4[nH]3)n2)c(-c2ccccn2)n1 [Compound I-147, 6-(6-methoxy-1H-indol-2-yl)-N-(1-(2-(2-methoxyethoxy)ethyl)-3-(pyridin-2-yl)-1H-pyrazol-4-yl)picolinamide formate]",10.7,41.1,–,–
"Cc1cncc(-c2cccc(C(=O)Nc3cn(C)nc3N3CCOCC3)n2)c1 [Compound I-77, 5′-methyl-N-(1-methyl-3-morpholino-1H-pyrazol-4-yl)-[2,3′-bipyridine]-6-carboxamide]",2.16,33.2,–,–
"Cn1cc(NC(=O)c2cccc(-c3ccncc3)n2)c(-c2cnccn2)n1 [Compound I-100, N-(1-methyl-3-(pyrazin-2-yl)-1H-pyrazol-4-yl)-[2,4′-bipyridine]-6-carboxamide]",9.85,64.1,–,–
"Cn1cc(NC(=O)c2ccnc(-c3cn[nH]c3)n2)c(-c2ccccn2)n1 [Compound I-137, N-(1-methyl-3-(pyridin-2-yl)-1H-pyrazol-4-yl)-2-(1H-pyrazol-4-yl)pyrimidine-4-carboxamide]",5.06,4.01,–,–
"Cn1cc(NC(=O)c2cccc(-c3cn[nH]c3)n2)c(N2CCCC2)n1 [Compound I-72, N-(1-methyl-3-(pyrrolidin-1-yl)-1H-pyrazol-4-yl)-6-(1H-pyrazol-4-yl)picolinamide]",3.17,7.58,–,–
"O=C(Nc1cn(CCN2CCOCC2)nc1-c1ccccn1)c1cccc(-c2cn[nH]c2)n1 [Compound I-83, N-(1-(2-morpholinoethyl)-3-(pyridin-2-yl)-1H-pyrazol-4-yl)-6-(1H-pyrazol-4-yl)picolinamide]",82.7,2.01,–,–
"COCCCn1cc(NC(=O)c2cccc(-c3cncc(C)c3)n2)c(-c2ccccn2)n1 [Compound I-169, N-(1-(3-methoxypropyl)-3-(pyridin-2-yl)-1H-pyrazol-4-yl)-5′-methyl-[2,3′-bipyridine]-6-carboxamide]",2.42,0.557,–,–
"Cn1cc(NC(=O)c2cccc(-c3cn[nH]c3)n2)c(-c2ccccn2)n1 [Compound I-9, N-(1-methyl-3-(pyridin-2-yl)-1H-pyrazol-4-yl)-6-(1H-pyrazol-4-yl)picolinamide]",0.178,0.281,–,–
"Cn1cc(NC(=O)c2cccc(-c3ccn[nH]3)n2)c(-c2ccccn2)n1 [Compound I-6, N-(1-methyl-3-(pyridin-2-yl)-1H-pyrazol-4-yl)-6-(1H-pyrazol-5-yl)picolinamide]",0.162,0.536,–,–
"Cn1cc(NC(=O)c2cccc(-c3cnc4[nH]ccc4c3)n2)c(-c2ccccn2)n1 [Compound I-44, N-(1-methyl-3-(pyridin-2-yl)-1H-pyrazol-4-yl)-6-(1H-pyrrolo[2,3-b]pyridin-5-yl)picolinamide]",1.77,0.349,–,–
"CC(=O)Nc1ccc(-c2cccc(C(=O)Nc3cn(C)nc3-c3cnccn3)n2)cn1 [Compound I-102, 6′-acetamido-N-(1-methyl-3-(pyrazin-2-yl)-1H-pyrazol-4-yl)-[2,3′-bipyridine]-6-carboxamide]",2.04,26.7,–,–
"Cn1cc(NC(=O)c2cccc(-c3cc[nH]n3)n2)c(-c2ccc(OCC(C)(C)O)cn2)n1 [Compound I-180, N-(3-(5-(2-hydroxy-2-methylpropoxy)pyridin-2-yl)-1-methyl-1H-pyrazol-4-yl)-6-(1H-pyrazol-3-yl)picolinamide]",1.19,0.34,–,–
"COCCOCCn1cc(NC(=O)c2cccc(-c3ccnc(C)c3)n2)c(-c2ccccn2)n1 [Compound I-146, N-(1-(2-(2-methoxyethoxy)ethyl)-3-(pyridin-2-yl)-1H-pyrazol-4-yl)-2′-methyl-[2,4′-bipyridine]-6-carboxamide formate]",5.9,4.24,–,–
"Cn1cc(NC(=O)c2ccnc(-c3cc[nH]n3)n2)c(-c2ccccn2)n1 [Compound I-138, N-(1-methyl-3-(pyridin-2-yl)-1H-pyrazol-4-yl)-2-(1H-pyrazol-3-yl)pyrimidine-4-carboxamide]",1.18,29.4,–,–
"COCCOCCn1cc(NC(=O)c2cccc(-c3cc[nH]n3)n2)c(-c2ccccn2)n1 [Compound I-150, N-(1-(2-(2-methoxyethoxy)ethyl)-3-(pyridin-2-yl)-1H-pyrazol-4-yl)-6-(1H-pyrazol-3-yl)picolinamide formate]",0.0662,3.39,–,–
"Cc1cncc(-c2cccc(C(=O)Nc3cn(C)nc3N3CCCCC3)n2)c1 [Compound I-76, 5′-methyl-N-(1-methyl-3-(piperidin-1-yl)-1H-pyrazol-4-yl)-[2,3′-bipyridine]-6-carboxamide]",4.32,1.93,–,–
"CS(=O)(=O)Nc1cncc(-c2cccc(C(=O)Nc3cn(C4COC4)nc3-c3ccccn3)n2)c1 [Compound I-119, sodium (methylsulfonyl)(6-((1-(oxetan-3-yl)-3-(pyridin-2-yl)-1H-pyrazol-4-yl)carbamoyl)-[2,3′-bipyridine]-5′-yl)amide]",–,–,1,1.02
"Cn1cc(NC(=O)c2cccc(-c3cncc(NCC4CC4)c3)n2)c(-c2ccccn2)n1 [Compound I-32, 5′-((cyclopropylmethyl)amino)-N-(1-methyl-3-(pyridin-2-yl)-1H-pyrazol-4-yl)-[2,3′-bipyridine]-6-carboxamide]",7.19,2.52,–,–
"Cc1cncc(-c2cccc(C(=O)Nc3cn(C)nc3-c3ccc(OCC(C)(C)O)cn3)n2)c1 [Compound I-178, N-(3-(5-(2-hydroxy-2-methylpropoxy)pyridin-2-yl)-1-methyl-1H-pyrazol-4-yl)-5′-methyl-[2,3′-bipyridine]-6-carboxamide]",19.3,2.07,–,–
"COCCOCCn1cc(NC(=O)c2cccc(-c3cnn(-c4cccc(Cl)c4)c3)n2)c(-c2ccccn2)n1 [Compound I-148, 6-(1-(3-chiorophenyl)-1H-pyrazol-4-yl)-N-(1-(2-(2-methoxyethoxy)ethyl)-3-(pyridin-2-yl)-1H-pyrazol-4-yl)picolinamide formate]",6.28,4.5,–,–
"CN1CCN(c2cncc(-c3cccc(C(=O)Nc4cn(C)nc4-c4ccccn4)n3)c2)CC1 [Compound I-38, N-(1-methyl-3-(pyridin-2-yl)-1H-pyrazol-4-yl)-5′-(4-methylpiperazin-1-yl)-[2,3′-bipyridine]-6-carboxamide]",33.7,6.2,–,–
"CC(C)n1cc(NC(=O)c2cccc(-c3cn[nH]c3)n2)c(-c2ccccn2)n1 [Compound I-80, N-(1-isopropyl-3-(pyridin-2-yl)-1H-pyrazol-4-yl)-6-(1H-pyrazol-4-yl)picolinamide]",8.79,2.39,–,–
"Cn1cc(NC(=O)c2cccc(C3=CCCNC3)n2)c(-c2ccccn2)n1 [Compound I-65, N-(1-methyl-3-(pyridin-2-yl)-1H-pyrazol-4-yl)-1′,2′,5′,6′-tetrahydro-[2,3′-bipyridine]-6-carboxamide]",7.88,77.2,–,–
"Cc1cc(-c2cccc(C(=O)Nc3cn(C4COC4)nc3-c3ccccn3)n2)[nH]n1 [Compound I-136, 6-(3-methyl-1H-pyrazol-5-yl)-N-(1-(oxetan-3-yl)-3-(pyridin-2-yl)-1H-pyrazol-4-yl)picolinamide]",0.198,0.469,–,–
"Cc1cncc(-c2cccc(C(=O)Nc3cn(C4CCOCC4)nc3-c3ccccn3)n2)c1 [Compound I-164, 5′-methyl-N-(3-(pyridin-2-yl)-1-(tetrahydro-2H-pyran-4-yl)-1H-pyrazol-4-yl)-[2,3′-bipyridine]-6-carboxamide]",2.89,1.37,–,–
"CN1CCN(c2ccc(-c3nn(C)cc3NC(=O)c3cccc(-c4cn[nH]c4)n3)nc2)CC1 [Compound I-174, N-(1-methyl-3-(5-(4-methylpiperazin-1-yl)pyridin-2-yl)-1H-pyrazol-4-yl)-6-(1H-pyrazol-4-yl)picolinamide]",7.07,19.5,–,–

# — patent publication US10947216B2, “Amide compounds and method for making and using” (Rigel Pharmaceuticals, Inc., priority 2016, dated 2021)
